Data: US8518884B2, “Methods for treating atrial or ventricular arrhythmias by administering a G-protein alpha inhibitor” (Northwestern University, priority 2008, dated 2013)
Entries after “also recorded” stand apart in the source; their conditions may differ. Ends that are not written are not given here.

What was measured:
[1] = test system: Gαo1; test: Gαo1 minigene in the PLA: vagal and CCh induced ERP shortening; type: in vivo, dog; conditions: 10 mg minigene in PLA; day 3; compared to GαR dogs
Description: This Example describes the use of a Gαo1 inhibitor to treat arrhythmia is a subject. In one animal, the following was performed: • Day 1: Open-chest mapping was performed via a left lateral thoracotomy. 10 mg of minigene expressing Gαo1 peptide was then injected in the PLA, followed by electroporation. • Day 3: A left lateral thoracotomy was performed again. The left vagus nerve was isolated. ERPs were measured in the PLA, PV and LAA in the absence and presence of vagal stimulation. Data from the above animal was compared with other dogs that received other minigenes (i.e. Gαi2, Gαi2+Gαo1 and GαR (see Aistrup et al, Heart Rhythm 2011)

[2] = test system: posterior left atrium (PLA); test: Topical tropicaimide on the PLA: vagal stimulation (VS)-induced ERP shortening and AF inducibility; type: in vivo, canine
Description: P nerve fibers, and related muscarinic receptors, are preferentially located in the PLA and selective cholinergic blockade in the PLA can be successfully performed to alter vagal AF substrate. PLA, PVs and left atrial appendage (LAA) in canine subjects were immunostained for S nerves (dopamine beta-hydroxylase), P nerves (acetylcholine esterase), and M2 receptors. Epicardial electrophysiologic mapping was performed in 7 additional canine subjects. The PLA was the most richly innervated with nerve bundles containing P and S fibers (PV=0.9±1, PLA=3.2±2.5, LAA=0.17±0.3/cm^2; p<0.001); nerve bundles were located in fibrofatty tissue as well as in surrounding myocardium. P predominated over S fibers within bundles (P/S: PV=4.4, PLA=7.2, LAA=5.8). M2 distribution was also most pronounced in the PLA (M2 stained cells/cm^2: PLA=17.8±8.3, PV=14.3±7.3, LAA=14.5±8, p=0.012). A particularly high concentration of P fibers was found in the ligament of Marshall (in the PLA). The ligament of Marshall could be traced back to a major branch of the left cervical vagus nerve. The nerve in turn innervates the PVs and the rest of the PLA. The PLA surface is stained for acetylcholinesterase. […] A small nerve branch (N) originating in the LOM is seen to innervate the LSPV. […] Cholinergic nerves from the PLA fat pad (PFP) can be seen to innervate the LIPV. […] 1% tropicaimide was then applied topically to the PLA.
Using the canine model outlined below, 1% tropicaimide (a cholinergic blocker) was applied topically to the epicardial aspect of the PLA in canine subjects. Effective refractory periods were measured at multiple sites in the PLA a) at baseline, b) after left vagal stimulation, c) after tropicaimide application to the PLA and d) in the presence of vagal stimulation after tropicaimide application. […] The robust autonomic profile of the PLA and its role in AF (both in normal as well as diseased hearts), thereby making it an attractive target for autonomic manipulation by regional delivery of Gα C-terminal peptides. […]

[3] = test system: M2R-stimulated Gi activation; test: Cholinergic (CCh) modulation of Ca2+ transients in isolated canine left atrial myocytes; type: cell-based
From the text: (§1) Cardiac myocytes were isolated from the canine left atrium, loaded with fluo-4 (fluorescent Ca^2+ indicator), and electrically field-stimulated. […] The effects can be summarized quantitatively (SEE FIG. 12B).

[4] = test system: Gαi; test: cp-Gα peptide delivery to the PLA with electroporation/sonoporation: ERPs and AF inducibility with vagal stimulation; type: in vivo, canine
Description: High-density epicardial mapping was performed in the PVs (2×2 electrodes), the PLA (7×3 electrodes) and the left atrial appendage (LAA) (7×3 electrodes) of canine subjects. Effective refractory periods (ERPs) were obtained at baseline and in response left cervical vagal stimulation (VS) (20 Hz). Cp-Gαi2 peptide (200-330 nM) was then applied topically to the epicardial aspect of the PLA in a canine subgroup. Cp-Gαi3 peptide (200-330 nM) was then applied topically to the epicardial aspect of the PLA of a second subgroup. Electroporation was performed after the application of peptide to enhance intracellular delivery of the peptide. ERPs were then re-measured in the presence and absence of VS.
In canine subjects, high-density epicardial mapping was performed in the PVs (2×2 electrodes), the PLA (7×3 electrodes) and the left atrial appendage (LAA) (7×3 electrodes). Effective refractory periods (ERPs) were obtained at baseline and in response left cervical vagal stimulation (VS) (20 Hz). FLAG-tcp-Gα peptides (200 nM-3 μM of cp-Gαi1/2 (N=8 canine subjects), cp-Gαi3 (N=4 canine subjects), or random-sequence cp-GαoR peptide (N=3 canine subjects) were injected into the PLA epicardium of the canine subjects followed by either sonoporation or electroporation. In a subgroup of the canine subjects, sonoporation or electroporation alone was performed without introduction of cp-Gαi peptide. ERPs were then re-measured in the presence and absence of VS. In a separate set of control animals, ERPs were measured before and after the administration of systemic autonomic blockade with propranolol (0.2 mg/kg)+atropine (0.04 mg/kg).

[5] = test system: βAR-stimulated Gs activation; test: β-adrenergic (ISO) modulation of Ca2+ transients in isolated canine left atrial myocytes; type: cell-based; conditions: 1 μM ISO (βAR saturating); within 20-30 seconds
From the text: as §1

[6] = test system: left atrium; test: Functional studies in pacing-induced CHF and control canine subjects: left atrial ERPs under autonomic manipulation; type: in vivo; conditions: both groups (CHF and control)
Description: Canine subjects were divided into three groups. In group 1, CHF was induced by rapid ventricular pacing for 4 weeks (i.e. when the animals began to develop clinical heart failure. In group 2, pacing was performed for only 3 weeks. Group three were control canine subjects not subjected to rapid ventricular pacing. At the end of follow up period, high-density epicardial mapping was performed in the PVs, the PLA and the LAA. ERPs were obtained at multiple sites under the following conditions: a) baseline (BSL), b) left cervical vagal stimulation at 20 Hz (VS), c) beta-stimulation with isoproterenol (ISO), d) beta-blockade with propranolol (PROP) and e) beta-blockade+vagal stimulation (P+VS). VS caused significant mean ERP shortening in all three groups. […] PROP increased the VS effect on ERP in normal controls, but produced an attenuation of this effect in the CHF group (SEE FIG. 37). In this CHF model, after 4 weeks of pacing, an increased vagal effect on atrial refractoriness, an increased cumulative sympathetic effect, and a change in the sympatho-vagal interactions of the left atrium were observed. After 3 weeks of pacing, there is pronounced autonomic remodeling, with evidence of P as well S nerve upregulation in the PVs and left atrium. Both P and S upregulation are more pronounced in the PLA (and to a lesser extent in the PVs) than in the rest of the left atrium. While vagal responsiveness in the left atrium is unaltered at 3 weeks of pacing, it increases after 4 weeks of pacing. […] The autonomic remodeling becomes more pronounced with increasing duration of pacing. […] The increase in β1 binding is consistent with the increase in sympathetic innervation. […] The P upregulation noted in the left atrium in CHF is a compensatory response to S upregulation that occurs in response to CHF. […] However, since normal atria are more densely innervated with vagal fibers (than the ventricle) and also contain a significant amount of IKAch, the compensatory response is likely to be more vigorous in the atrium. The compensatory increase in vagal innervations, and resulting increase in IKAch, may contribute to increased AF substrate.

[7] = test system: canine subject atrial cardiomyocytes; test: Toxicity by rapid automated tetrazolium dye based assay (MTT); type: cell-based; conditions: 5 μM peptide
[8] = 200 nM-3 μM injected into PLA + sono/electroporation
[9] = during VS, after peptide delivery into PLA

For IANNLRGCGLY [Gαo1 minigene], the “CCh induced ERP shortening” value [1] was “significant reduction” and the “vagal induced ERP shortening” value [1] was “significant reduction”.
In the case of CCN(Cc1ccncc1)C(=O)C(CO)c1ccccc1 (stereo not shown) [tropicaimide], the “VS-induced ERP shortening” value ([2]; 1% tropicaimide topically to PLA, PLA, PV and LAA) is reported as “significantly attenuated; also recorded: either entirely eliminated or at least significantly attenuated”, the “decrease in AF inducibility” value ([2]; 1% tropicaimide topically to PLA, vagal stimulation) is reported as 92% and the “AF induction with extrastimulus testing” value ([2]; after 1% tropicaimide to PLA, presence or absence of vagal stimulation) is reported as “could not induced”.
For “cp-Gαi2: chimeric peptide: cell-penetrating poly-arginine N-terminal sequence and C-terminal last 11 residues of Gαi (IKNNLKDCGLF; also: cell-penetrating poly-arginine N-terminal sequence, length not given here)”, the “attenuation of CCh effect on Ca2+ transients” value ([3]; 0.1-3 μM peptide superfusion 10-20 min, CCh) was “significantly attenuate” and the “VS induced ERP shortening” value ([4]; 200-330 nM topical to PLA + electroporation, PLA, PV and LAA) was “significantly attenuated”.
With CC(C)NCC(O)c1ccc(O)c(O)c1 (stereo not shown) [ISO, isoproterenol] the “effect on Ca2+ transients” value [5] was “appreciably augmented” and the “effect on mean ERP compared to PROP” value [6] was “significantly shortened”.
With “cp-Gαi peptide: cell-penetrating Gαi C-terminal peptide (cp-Gαi1/2 or cp-Gαi3), isoform not specified at the place (IKNNLKDCGLF; also: cell-penetrating sequence attached, not shown)” the “enhancement of cell viability” value [7] was roughly 8%, the “VS-induced ERP shortening in the LAA” value [4, 8] was “Elimination” and the “VS-induced ERP shortening in the PLA” value [4, 8] was “eliminated”. For the same compound, the “ERP heterogeneity (coefficient of variation of all ERPs in PLA)” value ([4]; after peptide application) was “no change”, the “AF inducibility in the presence of VS” value ([4]; after peptide delivery to PLA) was “significantly decreased” and the “reduction in AF inducibility during VS” value ([4]; compared to vagal stimulation at baseline) was 69%. For the same compound, the “AF episodes >5 seconds in duration induced” value [4, 9] was 10 episodes, the AF inducibility index [4, 9] was 0.05 and the “atrial or ventricular arrhythmias induced by peptide injection” value ([4]; with or without sono/electroporation) was “No atrial or ventricular arrhythmias were induced”.
In the case of C[N+](C)(C)CCOC(N)=O [CCh, carbachol, reference compound], the “effect on cellular Ca2+ transients” value ([3]; 10 μM CCh (M2R saturating), field-stimulated myocytes) is reported as “nearly eliminated”.
